Data taken from article PMC6522510 (Nature Communications, 2019).
Read-outs that look alike come from different tables or passages of the source.

Key:
Test in all cases: cells
Parameters in all cases: species or system AML cell lines (8); Secondary HTS, 10-point dose-response in triplicate, Cell Titer Glo viability, four-parameter fit EC50
[1] = system: CMS; details: read-out: CMS
[2] = system: CMK; details: Homo sapiens, read-out: CMK
[3] = system: MV4-11; details: Homo sapiens, read-out: MV4-11
[4] = system: ML-2; details: Homo sapiens, read-out: ML-2
[5] = system: CHRF288-11; details: read-out: CHRF288-11
[6] = system: MOLM-13; details: Homo sapiens, read-out: MOLM-13
[7] = system: U937; details: Homo sapiens, read-out: U937
[8] = system: M07e; details: M-07e, read-out: M07e

| EC50 ([3]; MV4-11, 72 h) [µM] | EC50 ([6]; MOLM-13, 72 h) [µM] | EC50 ([7]; U-937, 72 h) [µM] | Compound | EC50 ([1]; 72 h) [µM] | EC50 ([2]; CMK, 72 h) [µM] | EC50 ([4]; ML-2, 72 h) [µM] | EC50 ([5]; 72 h) [µM] | EC50 ([8]; 72 h) [µM] | EC50 ([1]; 72 h cell viability) [µM] | EC50 ([2]; 72 h cell viability) [µM] | EC50 ([3]; 72 h cell viability) [µM] | EC50 ([4]; 72 h cell viability) [µM] | EC50 ([5]; 72 h cell viability) [µM] | EC50 ([6]; 72 h cell viability) [µM] | EC50 ([7]; U-937, 72 h cell viability) [µM] | EC50 ([8]; 72 h cell viability) [µM] |
| --- | --- | --- | --- | --- | --- | --- | --- | --- | --- | --- | --- | --- | --- | --- | --- | --- |
| > 10 | > 10 | > 10 | Clc1ccc(-c2csc(NN=C3CCCC3)n2)cc1 [SJ000784270, CPTH2] | > 10 | > 10 | > 10 | > 10 | > 10 | – | – | – | – | – | – | – | – |
| 0.72 | 0.26 | 1.6 | Cn1cccc1/C=C1\C(=O)NC(=O)c2ccccc21 [SJ000784271, BYK 204165] | 2.2 | > 10 | > 10 | 5.5 | 0.63 | – | – | – | – | – | – | – | – |
| > 10 | 3.1 | 6.7 | CC(C)C(=O)SCCCCCCC(=O)Nc1nc(-c2ccccc2)cs1 [SJ000784276, NCH 51] | 4.5 | > 10 | 5.6 | 3.6 | 3.6 | – | – | – | – | – | – | – | – |
| > 10 | 2.5 | > 10 | NC(=O)c1cccc2ncc(-c3ccc(Cl)cc3)nc12 [SJ000784278, PARP INHIBITOR XII] | > 10 | > 10 | > 10 | > 10 | > 10 | – | – | – | – | – | – | – | – |
| > 10 | > 10 | > 10 | O=C(O)C(Cc1c[nH]c2ccccc12)N1C(=O)c2ccccc2C1=O (stereo not drawn) [SJ000784279, RG108] | > 10 | > 10 | > 10 | > 10 | > 10 | – | – | – | – | – | – | – | – |
| > 10 | > 10 | > 10 | COC(=O)/C=C/C(=O)OC [SJ000784308, BG-12] | > 10 | > 10 | > 10 | > 10 | > 10 | – | – | – | – | – | – | – | – |
| 0.001 | 2.1 | 0.6 | COc1ccc(-c2cc3c(C)nc(N)nc3n([C@H]3CC[C@H](OCCO)CC3)c2=O)cn1 [SJ000784313, PF-04691502] | 0.34 | 1.4 | 0.23 | 4.3 | > 10 | – | – | – | – | – | – | – | – |
| > 10 | 0.45 | > 10 | Nc1nc(=O)n([C@H]2C[C@H](O)[C@@H](CO)O2)cc1F [SJ000785889, 5-FLUORODEOXYCYTIDINE] | > 10 | 0.14 | 0.0089 | 3.17 | > 10 | – | – | – | – | – | – | – | – |
| > 10 | 0.65 | 3.2 | COc1cc2c(cc1-c1c(C)noc1C)ncc1[nH]c(=O)n([C@H](C)c3ccccn3)c12 [SJ000785891, I-BET151] | 2.1 | > 10 | 2.7 | 5.1 | > 10 | – | – | – | – | – | – | – | – |

Second part, the compound before the results:

| Compound | EC50 ([3]; MV4-11, 72 h) [µM] | EC50 ([6]; MOLM-13, 72 h) [µM] | EC50 ([7]; U-937, 72 h) [µM] | EC50 ([1]; 72 h) [µM] | EC50 ([2]; CMK, 72 h) [µM] | EC50 ([4]; ML-2, 72 h) [µM] | EC50 ([5]; 72 h) [µM] | EC50 ([8]; 72 h) [µM] | EC50 ([1]; 72 h cell viability) [µM] | EC50 ([2]; 72 h cell viability) [µM] | EC50 ([3]; 72 h cell viability) [µM] | EC50 ([4]; 72 h cell viability) [µM] | EC50 ([5]; 72 h cell viability) [µM] | EC50 ([6]; 72 h cell viability) [µM] | EC50 ([7]; U-937, 72 h cell viability) [µM] | EC50 ([8]; 72 h cell viability) [µM] |
| --- | --- | --- | --- | --- | --- | --- | --- | --- | --- | --- | --- | --- | --- | --- | --- | --- |
| Oc1cccc(-c2nc(N3CCOCC3)c3oc4ncccc4c3n2)c1 [SJ000574285, PIK 103] | 1.5 | 0.94 | 0.41 | > 10 | 3.2 | > 10 | > 10 | > 10 | – | – | – | – | – | – | – | – |
| CCNC(=O)C[C@@H]1N=C(c2ccc(Cl)cc2)c2cc(OC)ccc2-n2c(C)nnc21 [SJ000574791, I-BET-762] | 0.97 | 4.6 | 4.3 | 9.8 | > 10 | 9.8 | > 10 | 0.001 | – | – | – | – | – | – | – | – |
| COc1cc(Nc2ncc(F)c(Nc3ccc4c(n3)NC(=O)C(C)(C)O4)n2)cc(OC)c1OC [SJ000772392, R406] | 0.057 | 0.14 | > 10 | 0.9 | > 10 | > 10 | > 10 | > 10 | – | – | – | – | – | – | – | – |
| COc1cc(O)c2c(c1)/C=C/C[C@H](O)[C@H](O)C(=O)/C=C\C[C@H](C)OC2=O [SJ000773172, (5Z)-7-OXOZEAENOL] | > 10 | > 10 | 6.6 | 7.3 | 0.37 | 5.5 | 2.1 | 0.84 | – | – | – | – | – | – | – | – |
| Nc1[nH]nc2nnc(-c3c(-c4ccccc4)nn4ccccc34)cc12 [SJ000773182, FR 180204] | > 10 | > 10 | > 10 | > 10 | > 10 | > 10 | > 10 | > 10 | – | – | – | – | – | – | – | – |
| O=C(Nc1ccccc1-c1cn2c(CN3CCNCC3)csc2n1)c1cnc2ccccc2n1 [SJ000784238, SRT1720] | > 10 | > 10 | 1.5 | > 10 | > 10 | > 10 | 5.6 | 4.4 | – | – | – | – | – | – | – | – |
| Cc1ccc(NC(=O)CCCCCC(=O)Nc2ccccc2N)cc1 [SJ000784239, PIMELIC DIPHENYLAMIDE 106] | > 10 | > 10 | > 10 | 8.2 | > 10 | > 10 | > 10 | 6.7 | – | – | – | – | – | – | – | – |
| Cc1cc(Cl)ccc1OCCCC(=O)NO [SJ000784245, DROXINOSTAT] | > 10 | > 10 | > 10 | 6.81 | > 10 | > 10 | 0.37 | > 10 | – | – | – | – | – | – | – | – |
| O=C(Nc1cccc(NC(=O)c2cccc(O)c2O)c1)c1cccc(O)c1O [SJ000784251, MST312] | > 10 | 1.5 | 2.8 | 2.9 | > 10 | 3.7 | 2 | 5.2 | – | – | – | – | – | – | – | – |
| O=C(O)Cc1ccccc1 [SJ000784253, SODIUM PHENYLACETATE] | – | – | – | – | – | – | – | – | > 10 | > 10 | > 10 | > 10 | > 10 | 2.1 | > 10 | > 10 |
| CC(=O)Nc1ccc(NC(=S)NC(=O)c2ccc(C(C)(C)C)cc2)cc1 [SJ000784260, TENOVIN-1] | > 10 | > 10 | > 10 | 0.77 | > 10 | > 10 | > 10 | > 10 | – | – | – | – | – | – | – | – |
| COc1cc2c(NC3CCN(C)CC3)nc(N3CCCN(C)CC3)nc2cc1OCCCN(C)C [SJ000784262, UNC0224] | > 10 | > 10 | > 10 | > 10 | > 10 | > 10 | > 10 | > 10 | – | – | – | – | – | – | – | – |
| CN(C)CC(=O)Nc1ccc2[nH]c(=O)c3ccccc3c2c1 [SJ000784265, PJ34] | > 10 | > 10 | > 10 | > 10 | > 10 | > 10 | > 10 | > 10 | – | – | – | – | – | – | – | – |
| NC(=O)C1CCCc2c1[nH]c1ccc(Cl)cc21 (stereo not drawn) [SJ000784267] | > 10 | > 10 | > 10 | > 10 | > 10 | > 10 | > 10 | > 10 | – | – | – | – | – | – | – | – |
| Cn1cc(/C=C/C(=O)c2cccc(F)c2)cc1/C=C/C(=O)NO [SJ000784269, MC1568] | > 10 | > 10 | 3.4 | > 10 | > 10 | 4.3 | 4.9 | 0.456 | – | – | – | – | – | – | – | – |
| CN(C)CCCNc1c2ccccc2nc2c1[nH]c1ccccc12 [SJ000784272, SYUIQ-5] | > 10 | 1.6 | 0.21 | 0.37 | > 10 | 1.8 | 1.6 | 0.54 | – | – | – | – | – | – | – | – |
| CN[C@@H]1C[C@H]2O[C@@](C)([C@@H]1OC)n1c3ccccc3c3c4c(c5c6ccccc6n2c5c31)C(=O)N[C@H]4O [SJ000784325, 7-HYDROXYSTAUROSPORINE] | 0.19 | 0.065 | 0.26 | 0.41 | 0.23 | 0.25 | 0.35 | > 10 | – | – | – | – | – | – | – | – |
| Fc1ccc(CNc2ncnc3ccc(F)cc23)cc1 [SJ000785893, SPAUTIN-1] | > 10 | > 10 | 3 | > 10 | > 10 | > 10 | > 10 | > 10 | – | – | – | – | – | – | – | – |
